Values of other authors in publication PMC10950972, “Relative bioavailability of fedratinib through various alternative oral administration methods in healthy adults” (Cancer Chemotherapy and Pharmacology, 2023).

Experiments:
[1] = set-up: method as in PMID 15598479; conditions: cited from earlier work
[2] = set-up: method as in PMID 34480861; conditions: patients; compared with healthy adults and patients with rheumatoid arthritis; cited from earlier work

Compound | Differences in bioavailability and PK parameters, intact capsules vs nasogastric administration [1] | PK after solution of crushed tablets via nasogastric tube vs PK previously reported [2]
COc1cc2ncnc(Nc3ccc(F)c(Cl)c3)c2cc1OCCCN1CCOCC1 [gefitinib] | no clinically significant differences | –
CCS(=O)(=O)N1CC(CC#N)(n2cc(-c3ncnc4[nH]ccc34)cn2)C1 [baricitinib] | – | consistent with PK results previously reported
